Key:
A549 = assay: Antiproliferative activity against human A549 cells after 72 hrs by MTT assay; assay type: functional, cell-based; details: A549, 72 h
MIA PaCa-2 = assay: Antiproliferative activity against human MIAPaCa2 cells after 72 hrs by MTT assay; assay type: functional, cell-based; details: MIA PaCa-2, 72 h
BJ = assay: Antiproliferative activity against human BJ cells after 72 hrs by MTT assay; assay type: cell-based
SK-OV-3 = assay: Antiproliferative activity against human SKOV3 cells after 72 hrs by MTT assay; assay type: functional, cell-based; details: SK-OV-3, 72 h

| SMILES | IC50 (A549) [µM] | IC50 (MIA PaCa-2) [µM] | IC50 (BJ) [µM] | IC50 (SK-OV-3) [µM] |
| --- | --- | --- | --- | --- |
| Cc1c(O)c(O)cc2c1CC=C1[C@@]2(C)CC[C@@]2(C)[C@@H]3C[C@](C)(C(=O)O)CC[C@]3(C)CC[C@]12C [DIHYDROCELASTROL] | 3.15 | 0.72 | – | – |
| CC(=O)Oc1cc2c(c(C)c1OC(C)=O)C(=O)C=C1C2(C)CC[C@@]2(C)[C@@H]3C[C@](C)(N=C=O)CC[C@]3(C)CC[C@]12C (single isomer, unassigned) | > 10 | > 10 | – | – |
| CCOC(=O)N[C@]1(C)CC[C@]2(C)CC[C@]3(C)C4=CC(=O)c5c(cc(OC)c(OC)c5C)[C@]4(C)CC[C@@]3(C)[C@@H]2C1 | > 10 | > 10 | – | – |
| COC(=O)N[C@]1(C)CC[C@]2(C)CC[C@]3(C)C4=CC(=O)c5c(cc(O)c(O)c5C)[C@]4(C)CC[C@@]3(C)[C@@H]2C1 | 6.53 | 6.5 | > 30 | 7.98 |
| CCOC(=O)N[C@]1(C)CC[C@]2(C)CC[C@]3(C)C4=CC=C5C(=CC(=O)C(O)=C5C)[C@]4(C)CC[C@@]3(C)[C@@H]2C1 | 1.93 | 0.78 | – | – |
| COC(=O)N[C@]1(C)CC[C@]2(C)CC[C@]3(C)C4=CC=C5C(=CC(=O)C(O)=C5C)[C@]4(C)CC[C@@]3(C)[C@@H]2C1 | 1.74 | 0.58 | – | – |
| CC1=C(O)C(=O)C=C2C1=CC=C1[C@@]2(C)CC[C@@]2(C)[C@@H]3C[C@](C)(NC(=O)OCC(C)C)CC[C@]3(C)CC[C@]12C | 2.23 | 0.8 | – | – |
| CC(=O)Oc1cc2c(c(C)c1OC(C)=O)C(=O)C=C1[C@@]2(C)CC[C@@]2(C)[C@@H]3C[C@](C)(CO)CC[C@]3(C)CC[C@]12C | 1.87 | 0.48 | – | – |
| COC(=O)N[C@]1(C)CC[C@]2(C)CC[C@]3(C)C4=CC(=O)c5c(cc(OC)c(O)c5C)[C@]4(C)CC[C@@]3(C)[C@@H]2C1 | > 10 | > 10 | – | – |
| CC1=C(O)C(=O)C=C2C1=CC=C1[C@@]2(C)CC[C@@]2(C)[C@@H]3C[C@](C)(NC(=O)OCC(C)(C)CO)CC[C@]3(C)CC[C@]12C | 1.58 | 1 | – | – |

— ChEMBL document CHEMBL4130422, “Design, synthesis and biological evaluation of novel C-29 carbamate celastrol derivatives as potent and selective cytotoxic compounds” (Eur J Med Chem, 2017)
